Test results as given in patent US20250188059A1, “NOVEL COMPOUND AND USE THEREOF FOR INHIBITING CHECKPOINT KINASE 2” (ARUM THERAPEUTICS INC, priority 2022, published 2025).
Where two headings read alike, the source gives them in different places.

Tests used:
Chk2 kinase = Chk2 kinase (Homo sapiens (Human), UniProt O96017); experiment: Chk2 kinase inhibitory activity (LanthaScreen TR-FRET); assay type: biochemical; settings: graded
Description: The compounds of Examples 1 to 66 were diluted at various concentrations and transferred to a 384-well plate by 5 μl, and 10 μl of a mixed solution (2×) of Chk1 kinase (Thermo, P3040) or Chk2 kinase (Thermo, PV3367) and a substrate (Thermo, PV3508) was added to wells treated with the compounds. 5 μl of an ATP solution at a 4× concentration was added to the test well and reacted at room temperature for 1 hour. 20 μl of LanthaScreen Terbium-CREB p-Ser 133 antibody (Thermo, PV3542) was added to the reaction well and incubated at room temperature for 30 minutes. Conversion data was measured by an EnVision 2014 multi label reader (PerkinElmer). The activity for each concentration was determined by the ratio (FRET ratio=FR) of the value obtained by dividing the value at 520 nm by the value at 490 nm among the emission wavelength values for each wavelength (Em520/Em490). The results obtained for each concentration of the compounds were the average values obtained in two wells, and the IC50 values of the compounds were calculated using PRIZM software for analysis of the results. IC50 in Table 7 was graded as follows.

[1] = test system: human breast cancer cell line MCF-7; experiment: Cancer cell growth inhibition test (CellTiter-Glo); assay type: cell-based; settings: MCF-7, 72 hours
Description: The human breast cancer cell line MCF-7 was treated with trypsin and harvested. The number of cells was counted, and about 3000 cells/80 μl per well were inoculated into a 96 well plate (Corning) and then incubated in a 37° C. incubator for 24 hours. Thereafter, the example compounds were diluted in a culture solution at various concentrations, and each well was treated with 20 μl and stored in a cell culture incubator for 72 hours. In the case of the group administered in combination, the example compounds and cisplatin or doxorubicin were diluted in a culture solution at various concentrations, and each well was treated with 20 μl. After 72 hours, each well was treated with 30 μl of CellTiter-Glo solution (Promega), and the luminescence was read on a Victor3 multi label reader (PerkinElmer).
Relative viability (%)=(value of each test well/value of well treated with DMSO alone)×100
The results obtained for each concentration for each example compound were the average values obtained from three wells, and PRIZM software was used for analysis of the results.

[2] = Homo sapiens, MCF7, 72 h, graded, read-out: Celltiter glo analysis (IC50)
[3] = graded, read-out: Celltiter glo analysis (IC50)
[4] = Homo sapiens, MCF7, 72 h, alone, read-out: Administered alone (IC50)

Sequence of Chk2 kinase (O96017 whole entry): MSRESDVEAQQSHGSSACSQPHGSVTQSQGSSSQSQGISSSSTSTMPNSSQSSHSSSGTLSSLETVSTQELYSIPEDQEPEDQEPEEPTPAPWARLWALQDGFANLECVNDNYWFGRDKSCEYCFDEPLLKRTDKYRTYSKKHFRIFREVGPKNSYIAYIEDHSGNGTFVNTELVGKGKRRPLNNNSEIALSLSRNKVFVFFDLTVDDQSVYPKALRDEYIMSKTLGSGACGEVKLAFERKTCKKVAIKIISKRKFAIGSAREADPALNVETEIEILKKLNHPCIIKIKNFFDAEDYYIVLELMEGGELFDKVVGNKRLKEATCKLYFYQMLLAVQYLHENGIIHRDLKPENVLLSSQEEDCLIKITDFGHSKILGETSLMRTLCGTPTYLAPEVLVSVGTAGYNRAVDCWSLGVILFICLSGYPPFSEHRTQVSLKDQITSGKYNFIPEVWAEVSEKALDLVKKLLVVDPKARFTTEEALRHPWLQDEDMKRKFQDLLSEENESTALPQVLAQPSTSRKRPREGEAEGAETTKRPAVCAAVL

Row | SMILES | IC50 (Chk2 kinase) [µM] | IC50 [1, 2] [µM] | also measured
1 | CC1(C)Cc2c(-c3cccc(-c4cnc(N)c(C(=O)N[C@@H]5CNCCOC5)n4)c3)cnn2C1 (stereo in doubt) [Example 61, 3-amino-6-(3-(5,5-dimethyl-5,6-dihydro-4H-pyrrolo[1,2-b]pyrazol-3-yl)phenyl)-N-(1,4-oxazepan-6-yl)pyrazine-2-carboxamide] | ≤ 0.01 | > 100 | 
2 | Nc1ncc(-c2cc(-c3cnn(CC(F)(F)F)c3)ncc2F)nc1C(=O)N[C@H]1CCCNC1 [Example 1, (S)-3-amino-6-(5-fluoro-2-(1-(2,2,2-trifluoroethyl)-1H-pyrazol-4-yl)pyridin-4-yl)-N-(piperidin-3-yl) pyrazine-2-carboxamide] | 0.01 to 0.1 | 10 to 100 | 
3 | Nc1ncc(-c2cc(-c3cnn(CC(F)(F)F)c3)ncc2F)nc1C(=O)N[C@@H]1CNCC[C@H]1O [Example 3, 3-amino-6-(5-fluoro-2-(1-(2,2,2-trifluoroethyl)-1H-pyrazol-4-yl)pyridin-4-yl)-N-((3R,4R)-4-hydroxypiperidin-3-yl)pyrazine-2-carboxamide] | ≤ 0.01 | 10 to 100 | 
4 | CC(C)(O)Cn1cc(-c2cc(-c3cnc(N)c(C(=O)N[C@H]4CCCNC4)n3)ccn2)cn1 [Example 5, (S)-3-amino-6-(2-(1-(2-hydroxy-2-methylpropyl)-1H-pyrazol-4-yl)pyridin-4-yl)-N-(piperidin-3-yl) pyrazine-2-carboxamide] | ≤ 0.01 | > 100 | 
5 | CC(C)(O)Cn1cc(-c2cc(-c3cnc(N)c(C(=O)NC4CNC[C@@H](F)C4)n3)ccn2)cn1 (stereo partly drawn) [Example 6, 3-amino-N-((3S,5S)-5-fluoropiperidin-3-yl)-6-(2-(1-(2-hydroxy-2-methylpropyl)-1H-pyrazol-4-yl)pyridin-4-yl)pyrazine-2-carboxamide] | ≤ 0.01 |  | IC50 [1, 3]: 10 to 100 µM
6 | CC(C)(O)Cn1cc(-c2cc(-c3cnc(N)c(C(=O)N[C@H]4CCC5(CC5)NC4)n3)ccn2)cn1 [Example 7, (S)-3-amino-6-(2-(1-(2-hydroxy-2-methylpropyl)-1H-pyrazol-4-yl)pyridin-4-yl)-N-(4-azaspiro[2.5]octan-6-yl)pyrazine-2-carboxamide] | ≤ 0.01 | 10 to 100 | 
7 | Nc1ncc(-c2cc(-c3cnn(CC(F)(F)F)c3)ccc2F)nc1C(=O)N[C@H]1CCC2(CC2)NC1 [Example 8, (S)-3-amino-6-(2-fluoro-5-(1-(2,2,2-trifluoroethyl)-1H-pyrazol-4-yl)phenyl)-N-(4-azaspiro[2.5]octan-6-yl)pyrazine-2-carboxamide] | 0.01 to 0.1 | 10 to 100 | 
8 | Nc1ncc(-c2cc(-c3cnn(CC(F)(F)F)c3)ccc2F)nc1C(=O)N[C@@H]1CNCC[C@H]1O [Example 10, 3-amino-6-(2-fluoro-5-(1-(2,2,2-trifluoroethyl)-1H-pyrazol-4-yl)phenyl)-N-((3R,4R)-4-hydroxypiperidin-3-yl) pyrazine-2-carboxamide] | 0.01 to 0.1 | 10 to 100 | 
9 | Nc1ncc(-c2cc(-c3cnn(CC(F)(F)F)c3)ccc2F)nc1C(=O)N[C@@H]1CNC[C@H]1O [Example 11, 3-amino-6-(2-fluoro-5-(1-(2,2,2-trifluoroethyl)-1H-pyrazol-4-yl)phenyl)-N-((3R,4R)-4-hydroxypyrrolidin-3-yl) pyrazine-2-carboxamide] | 0.01 to 0.1 | 10 to 100 | 
10 | Nc1ncc(-c2cc(-c3cnn(CC(F)(F)F)c3)ccc2F)nc1C(=O)N[C@@H]1CNCC(F)(F)C1 [Example 12, (S)-3-amino-N-(5,5-difluoropiperidin-3-yl)-6-(2-fluoro-5-(1-(2,2,2-trifluoroethyl)-1H-pyrazol-4-yl)phenyl)pyrazine-2-carboxamide] | > 1 | ≤ 10 | 
11 | Nc1ncc(-c2ccnc(-c3cnn(CC(F)(F)F)c3)c2)nc1C(=O)N[C@@H]1CNCC(F)(F)C1 [Example 13, (S)-3-amino-N-(5,5-difluoropiperidin-3-yl)-6-(2-(1-(2,2,2-trifluoroethyl)-1H-pyrazol-4-yl)pyridin-4-yl)pyrazine-2-carboxamide] | 0.1 to 1 | ≤ 10 | IC50 [1, 4]: 8.59 µM; IC50 ([1]; combination with cisplatin, read-out: Administered in combination with cisplatin (IC50)): 2.93 µM; IC50 ([1]; combination with doxorubicin, read-out: Administered in combination with doxorubicin (IC50)): 0.91 µM
12 | CC(C)(O)Cn1cc(-c2cc(-c3cnc(N)c(C(=O)N[C@@H]4CNC[C@@H](F)C4)n3)c(F)cn2)cn1 [Example 22, 3-amino-6-(5-fluoro-2-(1-(2-hydroxy-2-methylpropyl)-1H-pyrazol-4-yl)pyridin-4-yl)-N-((3S,5S)-5-fluoropiperidin-3-yl)pyrazine-2-carboxamide] | > 1 | 10 to 100 | 
13 | Nc1ncc(-c2cc(-c3cnn(CC(F)(F)F)c3)ccc2O)nc1C(=O)N[C@@H]1CNC[C@@H](F)C1 [Example 23, 3-amino-N-((3S,5S)-5-fluoropiperidin-3-yl)-6-(2-hydroxy-5-(1-(2,2,2-trifluoroethyl)-1H-pyrazol-4-yl)phenyl)pyrazine-2-carboxamide] | ≤ 0.01 | 10 to 100 | 
14 | Nc1ncc(-c2cc(-c3cnn(CC(F)(F)F)c3)ccc2O)nc1C(=O)N[C@H]1CCCNC1 [Example 24, (S)-3-amino-6-(2-hydroxy-5-(1-(2,2,2-trifluoroethyl)-1H-pyrazol-4-yl)phenyl)-N-(piperidin-3-yl) pyrazine-2-carboxamide] | ≤ 0.01 | 10 to 100 | 
15 | CC(C)(O)Cn1cc(-c2cc(-c3cnc(N)c(C(=O)NC4CNC[C@@H](F)C4)n3)ccn2)cn1 (stereo partly drawn) [Example 34, 3-amino-N-((3S,5S)-5-fluoropiperidin-3-yl)-6-(2-(1-(2-hydroxy-2-methylpropyl)-1H-pyrazol-4-yl)pyridin-4-yl)pyrazine-2-carboxamide] |  | 10 to 100 | 
16 | CC1(C)Cc2c(-c3ccc(F)c(-c4cnc(N)c(C(=O)N[C@@H]5CNCC[C@H]5O)n4)c3)cnn2C1 [Example 47, 3-amino-6-(5-(5,5-dimethyl-5,6-dihydro-4H-pyrrolo[1,2-b]pyrazol-3-yl)-2-fluorophenyl)-N-((3R,4R)-4-hydroxypiperidine-3-yl) pyrazine-2-carboxamide] | 0.01 to 0.1 | 10 to 100 | 
17 | CC1(C)Cc2c(-c3cc(-c4cnc(N)c(C(=O)N[C@@H]5CNC[C@@H](F)C5)n4)ccn3)cnn2C1 [Example 48, 3-amino-6-(2-(5,5-dimethyl-5,6-dihydro-4H-pyrrolo[1,2-b]pyrazol-3-yl)pyridin-4-yl)-N-((3S,5S)-5-fluoropiperidin-3-yl)pyrazine-2-carboxamide] | ≤ 0.01 | 10 to 100 | 
18 | CC1(C)Cc2c(-c3cc(-c4cnc(N)c(C(=O)N[C@H]5CCCNC5)n4)ccn3)cnn2C1 [Example 49, (S)-3-amino-6-(2-(5,5-dimethyl-5,6-dihydro-4H-pyrrolo[1,2-b]pyrazol-3-yl)pyridin-4-yl)-N-(piperidin-3-yl)pyrazine-2-carboxamide] | ≤ 0.01 | 10 to 100 | 
19 | CC1(C)Cc2c(-c3cc(-c4cnc(N)c(C(=O)N[C@H]5CCC6(CC6)NC5)n4)ccn3)cnn2C1 [Example 50, (S)-3-amino-6-(2-(5,5-dimethyl-5,6-dihydro-4H-pyrrolo[1,2-b]pyrazol-3-yl)pyridin-4-yl)-N-(4-azaspiro[2.5]octan-6-yl)pyrazine-2-carboxamide] | ≤ 0.01 | 10 to 100 | 
20 | CC1(C)Cc2c(-c3cccc(-c4cnc(N)c(C(=O)N[C@H]5CCC6(CC6)NC5)n4)c3)cnn2C1 [Example 51, (S)-3-amino-6-(3-(5,5-dimethyl-5,6-dihydro-4H-pyrrolo[1,2-b]pyrazol-3-yl)phenyl)-N-(4-azaspiro[2.5]octan-6-yl)pyrazine-2-carboxamide] | ≤ 0.01 |  | IC50 [1, 3]: 10 to 100 µM
21 | CC1(C)Cc2c(-c3cccc(-c4cnc(N)c(C(=O)N[C@@H]5CNCC[C@H]5O)n4)c3)cnn2C1 [Example 52, 3-amino-6-(3-(5,5-dimethyl-5,6-dihydro-4H-pyrrolo[1,2-b]pyrazol-3-yl)phenyl)-N-((3R,4R)-4-hydroxypiperidine-3-yl)pyrazine-2-carboxamide] | 0.01 to 0.1 | 10 to 100 | 
22 | CC1(C)Cc2c(-c3cc(-c4cnc(N)c(C(=O)N[C@@H]5CNCC[C@H]5O)n4)ccn3)cnn2C1 [Example 53, 3-amino-6-(2-(5,5-dimethyl-5,6-dihydro-4H-pyrrolo[1,2-b]pyrazol-3-yl)pyridin-4-yl)-N-((3R,4R)-4-hydroxypiperidin-3-yl)pyrazine-2-carboxamide] | 0.01 to 0.1 | > 100 | 
23 | N.N.[Cl][Pt][Cl] [cisplatin, reference compound] |  |  | IC50 ([1]; alone, read-out: Administered alone (IC50)): 26 µM
24 | COc1cccc2c1C(=O)c1c(O)c3c(c(O)c1C2=O)C[C@@](O)(C(=O)CO)C[C@@H]3O[C@H]1C[C@H](N)[C@H](O)[C@H](C)O1 [doxorubicin, reference compound] |  |  | IC50 [1, 4]: 1.5 µM
